From patent US7214672B2, “Preventives/remedies for inflammatory airway diseases” (Nippon Shinyaku Co., Ltd., priority 2000, dated 2007)

System: Rat (male, female)
Experiment: Single dose toxicity study
Assay type: in vivo
Conditions: rats, administered only once
Procedure: Compound 1 or 2 of the present invention was administered to rats only once, and the lethal dose thereof was determined.

| Structure (SMILES) | toxicity (single dose) |
| --- | --- |
| C[C@@H]1C[C@H]2[C@@H]3CCC4=CC(=O)C=C[C@]4(C)[C@@]3(F)[C@@H](O)C[C@]2(C)[C@@]1(OC(=O)C1CC1)C(=O)CO [Compound 1, 9-fluoro-11β,17,21-trihydroxy-16α-methyl-1,4-pregnadiene-3,20-dione 17-cyclopropanecarboxylate] | low toxicity |
| C[C@@H]1C[C@H]2[C@@H]3CCC4=CC(=O)C=C[C@]4(C)[C@@]3(F)[C@@H](O)C[C@]2(C)[C@@]1(OC(=O)C1CC1)C(=O)COC(=O)C1CCCCC1 [Compound 2, 9-fluoro-11β,17,21-trihydroxy-16α-methyl-1,4-pregnadiene-3,20-dione 21-cyclohexanecarboxylate 17-cyclopropanecarboxylate] | low toxicity |
